Positions count from the first letter of the chain named. Names may count otherwise.
Legend:
NFP L147D/L154D mutant = target: T1, NFP L147D/L154D mutant (Medicago truncatula, UniProt Q0GXS4, L147D/L154D); assay: BLI binding of NFP L147D/L154D mutant ectodomain to S. meliloti LCO-IV
T1 construct: The Medicago truncatula NFP ectodomain (residues 28-246) was codon-optimized; AcMNPV gp67 signal peptide (replaces native residues 1-27) (N, cleaved yes); made in house; host or cells: Sf9 insect cells (Spodoptera frugiperda), baculovirus, secreted into the medium
Source text: Creation of NFP point mutations: The NFP leucine residues L147 and L154 were replaced with aspartate residues. Aspartate is similar in size to leucine, but negatively charged where leucine is hydrophobic. Point mutants of NFP were engineered using site-directed mutagenesis. In particular, a double-mutated NFP was engineered where the leucine residues L147 and L154 were replaced with aspartate residues to create the mutant NFP L147D L154D. Point mutated versions of NFP were expressed and purified as described in Example 1.
NFP mutant binding assays: The binding assay using NFP wild type (WT) protein was replicated seven times, while the binding assay using the NFP mutant NFP L147D L154D was replicated four times.
Biolayer interferometry (BLI): Binding of NFP WT and NFP L147D/L154D mutant to S. meliloti LCO-IV was measured on an Octet RED 96 system (Pall ForteBio). S. meliloti LCO consists of a tetrameric/pentameric N-acetylglucosamine backbone that is O-sulfated on the reducing terminal residue, O-acetylated on the non-reducing terminal residue, and mono-N-acylated by unsaturated C16 acyl groups. Biotinylated ligand conjugates were immobilized on streptavidin biosensors (kinetic quality, Pall ForteBio) at a concentration of 125-250 nM for 5 minutes. The binding assays were replicated 7 times for the NFP WT, and 4 times for the NFP L147D/L154D mutant. Data analysis was performed in GraphPad Prism 6 software (GraphPad Software, Inc.). Equilibrium dissociation constants derived from the steady-state were determined by applying a non-linear regression (one site, specific binding) to the response at equilibrium plotted against the protein concentration. Kinetic parameters were determined by non-linear regression (association followed by dissociation) on the subtracted data. Binding of A. thaliana CERK1 (AtCERK1) to chitopentaose (CO5) and chitooctaose (CO8) was measured in the same way.

Medicago nfp mutants [1] = assay: Complementation (nodulation) of Medicago nfp mutants, inoculation with S. meliloti strain 2011; type: in vivo, Medicago truncatula; conditions: 6-7 weeks after inoculation with S. meliloti strain 2011, hairy root transformation
Source text: (§1) Complementation assay: Construct assembly, plant growth conditions, hairy root transformations, nodulation and ROS assays were generally conducted as described in Bozsoki et al. (2017) (Bozsoki Z, Cheng J, Feng F, Gysel K, Vinther M, Andersen K R, Oldroyd G, Blaise M, Radutoiu S, Stougaard J (2017) Receptor-mediated chitin perception in legume roots is functionally separable from Nod factor perception. Proc Natl Acad Sci 114: E8118-E8127). The tested transgenes were the mutated LysM receptors described in Example 2.

Medicago nfp mutants [2] = assay: Complementation (nodulation) of Medicago nfp mutants, inoculation with S. medicae; type: in vivo, Medicago truncatula
Source text: as §1
These complementation experiments were repeated using S. medicae inoculation, which has been reported to nodulate Medicago with higher efficiency. The results shown in FIG. 4B are complementation tests where the plants were inoculated with S. medicae.

[3] = tested on: L. japonicus nfr1-1 mutant roots; assay: Nodulation complementation of L. japonicus nfr1-1 mutants with LjNFR1/MtLYK3 chimeras, M. loti R7A; type: in vivo, Lotus japonicus; conditions: 35 days post inoculation with M. loti R7A
Source text: Complementation assay: Construct assembly, plant growth conditions, hairy root transformations, nodulation and ROS assays were generally conducted as described in Bozsoki et al. (2017) (Bozsoki Z, Cheng J, Feng F, Gysel K, Vinther M, Andersen K R, Oldroyd G, Blaise M, Radutoiu S, Stougaard J (2017) Receptor-mediated chitin perception in legume roots is functionally separable from Nod factor perception. Proc Natl Acad Sci 114: E8118-E8127). A general schematic of the construct is provided in FIG. 3, whereby the pNFR1 promoter was used to drive the chimeric constructs. The tested chimeric receptors in Lotus are depicted as block diagrams below the graph in FIG. 7, where NFR1 domains are shown in white and LYK3 domains are shown in grey, and transverse lines across the block depicting the LysM1 domain indicate sections II and IV. […] Nodules were counted on hairy root transformed L. japonicus nfr1-1 mutant roots 35 days post inoculation with M. loti R7Å. M. loti R7A is the cognate N-fixing bacterial strain for L. japonicus, and is not recognized by M. truncatula.

T1 sequence (Q0GXS4 28-246 L147D/L154D): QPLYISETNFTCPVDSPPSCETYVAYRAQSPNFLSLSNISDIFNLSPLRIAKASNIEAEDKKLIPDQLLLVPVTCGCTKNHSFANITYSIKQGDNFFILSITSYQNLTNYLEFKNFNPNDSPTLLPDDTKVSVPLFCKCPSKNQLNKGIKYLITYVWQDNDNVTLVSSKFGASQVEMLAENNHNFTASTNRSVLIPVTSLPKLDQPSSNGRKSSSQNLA

Molecule: CCCCCC/C=C\CCCCC/C=C/C(=O)N[C@H]1[C@H](O[C@H]2[C@H](O)[C@@H](NC(C)=O)[C@H](O[C@H]3[C@H](O)[C@@H](NC(C)=O)[C@H](O[C@H]4[C@H](O)[C@@H](NC(C)=O)C(O)O[C@@H]4COS(=O)(=O)O)O[C@@H]3CO)O[C@@H]2CO)O[C@H](COC(C)=O)[C@@H](O)[C@@H]1O (some centres unmarked) [S. meliloti LCO-IV]
- association rate (kon) faster compared to WT NFP-ECD (NFP L147D/L154D mutant; FIGS. 19A-19C): 4.5 fold
- dissociation rate (koff) increased compared to WT NFP-ECD (NFP L147D/L154D mutant; FIGS. 19A-19C): 59 fold
- Kd (NFP L147D/L154D mutant; S. meliloti LCO-IV, FIG. 2B): 48 ± 1 µM
- Kd (NFP L147D/L154D mutant; purified L147D/L154D NFP-ECD, FIGS. 19A-19C): 167 ± 4.2 µM
- affinity compared with NFP WT (NFP L147D/L154D mutant; S. meliloti LCO-IV, FIG. 2B): approximately two times lower affinity
- association (Kon) compared with NFP WT (NFP L147D/L154D mutant; S. meliloti LCO-IV, FIG. 2B): almost unaffected
- dissociation (Koff) faster than NFP WT (NFP L147D/L154D mutant; S. meliloti LCO-IV, FIG. 2B): approximately 15 times

B1: wild type Nfp gene: wild type Medicago NFP LysM receptor transgene used for hairy root complementation (protein, UniProt Q0GXS4 28-595, looked up)
Serine/threonine …: QPLYISETNFTCPVDSPPSCETYVAYRAQSPNFLSLSNISDIFNLSPLRIAKASNIEAEDKKLIPDQLLLVPVTCGCTKNHSFANITYSIKQGDNFFILSITSYQNLTNYLEFKNFNPNLSPTLLPLDTKVSVPLFCKCPSKNQLNKGIKYLITYVWQDNDNVTLVSSKFGASQVEMLAENNHNFTASTNRSVLIPVTSLPKLDQPSSNGRKSSSQNLALIIGISLGSAFFILVLTLSLVYVYCLKMKRLNRSTSSSETADKLLSGVSGYVSKPTMYEIDAIMEGTTNLSDNCKIGESVYKANIDGRVLAVKKIKKDASEELKILQKVNHGNLVKLMGVSSDNDGNCFLVYEYAENGSLEEWLFSESSKTSNSVVSLTWSQRITIAMDVAIGLQYMHEHTYPRIIHRDITTSNILLGSNFKAKIANFGMARTSTNSMMPKIDVFAFGVVLIELLTGKKAMTTKENGEVVILWKDFWKIFDLEGNREERLRKWMDPKLESFYPIDNALSLASLAVNCTADKSLSRPTIAEIVLCLSLLNQPSSEPMLERSLTSGLDAEATHVVTSVIAR
- nodules per plant (Medicago nfp mutants [1]): 10 nodules per plant

B2: double mutant construct (L147D/L154D): Medicago NFP with leucine residues L147 and L154 replaced with aspartate (hydrophobic patch mutant) (protein, UniProt Q0GXS4 28-595, looked up, variant L147D L154D)
Serine/threonine …: B1 Serine/threonine … with L120D, L127D
- nodules per plant (Medicago nfp mutants [1]): did not develop any nodules
- complementation (Medicago nfp mutants [2]): complements poorly

B3: LjCERK6: unaltered Lotus CERK6 chitin receptor protein (SEQ ID NO:34), negative control (protein)
chain: MEHPRLGFPITLLLFSFILLPSTSQSKCTHGCALAQASYYLLNGSNLTYISEIMQSSLLTKPEDIVSYNQDTIASKDSVQAGQRINVPFPCDCIEGEFLGHTFQYDVQKGDRYDTIAGTNYANLTTVEWLRRFNSYPPDNIPDTGTLNVTVNCSCGDSGVGDYGLFVTYPLRPGETLGSVASNVKLDSALLQKYNPNVNFNQGSGIVYIPAKDQNGSYVLLGSSSGGLAGGAIAGIAAGVAVCLLLLAGFIYVGYFRKKRIQKEELLSQETRAIFPQDGKDENPRSTVNETPGPGGPAAMAGITVDKSVEFSYDELATATDNFSLANKIGQGGFGSVYYAELRGERAAIKKMDMQASKEFLAELKVLTRVHHLNLVRLIGYSIEGSLFLVYEFIENGNLSQHLRGSGRDPLPWATRVQIALDSARGLEYIHEHTVPVYIHRDIKSANILIDKNYRGKVADFGLTKLTEVGSSSLPTGRLVGTFGYMPPEYAQYGDVSPKVDVYAFGVVLYELISAKDAIVKTSESITDSKGLVALFEGVLSQPDPTEDLRKLVDQRLGDNYPVDSVRKMAQLAKACTQDNPQLRPSMRSIVVALMTLSSTTDDWDVGSFYENQNLVNLMSGR
- complementation (nodulation) [3]: zero nodulation
